Values after ≈ are worked out from the molar mass of the structure shown. “Also recorded” adds a separate entry of the source. Structures can show the parent of a compound that is named as a salt.
Tests used:
[1] = Water solubility; format: physicochemical
[2] = Toxicity, oral doses in mice (ALD50, ATD50); format: in vivo; conditions: in vivo, mouse, oral, 5 mg/kg to 2000 mg/kg, 2 mice each dose; for LD50: read-out: ALD50 (approximate lethal dose for half the animals); for TD50: read-out: ATD50 (approximate lowest dose where signs of physiologic or neurologic deficit appear)
Description: (§1) ^(1) Various oral doses of from 5 mg/kg to 2000 mg/kg are given to 2
(§2) mice each; ALD50 is the approximate lethal dose for half the animals
(§3) ATD50 is the approximate lowest dose where signs of physiologic or
(§4) neurologic deficit appear.

[3] = system: mice; assay: Toxicity, oral doses in mice (ALD50, ATD50); format: in vivo; conditions: compared with encainide and its hydrochloride salt
Description: as §1, §2, §3, §4

[4] = system: dog; assay: Dog I.V.: anesthetized dog, effects on blood pressure, respiration and paw temperature; format: in vivo; conditions: for Toxicity, Dog I.V., effect at 1 mg/kg: first dose 1 mg/kg, blood pressure, respiration, paw temperature
Description: ^(2) Anesthesized dog treated first with a 1 mg/kg dose and then with
a 10 mg/kg dose; effects on blood pressure, respiration, and paw
temperature are observed.

[5] = system: ouabain induced ventricular tachycardia; assay: Antiarrhythmic activity, ouabain induced ventricular tachycardia in the dog; format: in vivo; conditions: compared with quinidine and encainide
Source text: The present substance is an improved antiarrhythmic agent.
^(3) Anesthetized open chest dog, ouabain induced (Byrne, J.E., et al

[6] = system: ventricular arrhythmia produced by chloroform inhalation; assay: Antiarrhythmic activity, ventricular arrhythmia produced in mice by chloroform inhalation; format: in vivo; conditions: 10 animals per dose
Source text: ^(4) Ventricular arrhythmia produced in mice by chloroform inhalation
10 animals per dose (Lawson, J. W., J. Pharmacol. Exp. Therap. 160, 22

SMILES	Water solubility, in words [1]	solubility ([1]; water)	LD50 [2]	TD50 [2]	Toxicity relative to encainide, in words [3]	Toxicity, Dog I.V., effect at 1 mg/kg [4]	Antiarrhythmic activity in ouabain induced ventricular tachycardia, in words [5]	Antiarrhythmic Activity, Mouse, I.P., activity at 31.3 mg/kg ([6]; 31.3 mg/kg)	Water solubility ([1]; water)	Toxicity, Dog I.V., effect at 10 mg/kg ([4]; 10 mg/kg after 1 mg/kg)	ED50 ([6]; ip, mouse, I.P.)
COc1ccc(C(=O)Nc2ccccc2CCC2CCCC[N+]2(C)[O-])cc1 (racemic) [Encainide N-Oxide, 4-Methoxy-N-[2-[2-(1-methyl-2-piperidyl)ethyl]phenyl]-benzamide N-oxide]	increased water solubility; also recorded: highly water soluble	833 mg/mL (≈ 2260 mM)	500 to 1000 mg/kg	62.5 to 125 mg/kg	substantially reduced toxicity	no effect	comparable to quinidine in activity, but somewhat less active than encainide	inactive			
COc1ccc(C(=O)Nc2ccccc2CCC2CCCCN2C)cc1 (centres unmarked) [Encainide]	rather low water solubility		50 to 100 mg/kg	5 to 10 mg/kg		no effect			46.3 mg/mL	lethal	7.1 to 15 mg/kg
COc1ccc(C(=O)Nc2ccccc2CCC2CCCCN2C)cc1 (centres unmarked) [hydrochloride salt]	higher water solubility relative to the base								205 mg/mL		

From patent publication US4306069A, “Encainide N-oxide” (priority 1980, dated 1981)
